Assay: xn = mol fraction of the nth substance listed
Conditions: 100 kPa

CC(=O)[O-].CCCC[n+]1ccn(C)c1 + O
viscosity [mPa·s]
Conditions | 278.15 K | 283.15 K | 293.15 K | 298.15 K | 303.15 K | 313.15 K | 323.15 K | 333.15 K | 343.15 K | 353.15 K
x2 = 0.012 | 2390 | 1403 | 562 | 375 | 260 | 136.6 | 79.4 | – | 31.37 | 21.85
x2 = 0.0173 | 2429 | 1425 | 567 | 380 | 263 | – | 78 | 48.1 | 31.4 | 22.07
